Measured values as given in article PMC5472308, “Characterization of the regulation of a plant polysaccharide utilization operon and its role in biofilm formation in Bacillus subtilis” (PLoS ONE, 2017).

Biological target: T1, LacZ (Escherichia coli, UniProt P00722)
T1 construct: lacZ reporter of plasmid pDG268 (PganS-lacZ at amyE) expressed in B. subtilis YC1074 (ganR R20H, ganA deleted); cleared sonicated lysate
Format: biochemical
Settings: 2.5 mM ONPG; Z buffer; qualitative

T1 sequence (P00722 2-1024): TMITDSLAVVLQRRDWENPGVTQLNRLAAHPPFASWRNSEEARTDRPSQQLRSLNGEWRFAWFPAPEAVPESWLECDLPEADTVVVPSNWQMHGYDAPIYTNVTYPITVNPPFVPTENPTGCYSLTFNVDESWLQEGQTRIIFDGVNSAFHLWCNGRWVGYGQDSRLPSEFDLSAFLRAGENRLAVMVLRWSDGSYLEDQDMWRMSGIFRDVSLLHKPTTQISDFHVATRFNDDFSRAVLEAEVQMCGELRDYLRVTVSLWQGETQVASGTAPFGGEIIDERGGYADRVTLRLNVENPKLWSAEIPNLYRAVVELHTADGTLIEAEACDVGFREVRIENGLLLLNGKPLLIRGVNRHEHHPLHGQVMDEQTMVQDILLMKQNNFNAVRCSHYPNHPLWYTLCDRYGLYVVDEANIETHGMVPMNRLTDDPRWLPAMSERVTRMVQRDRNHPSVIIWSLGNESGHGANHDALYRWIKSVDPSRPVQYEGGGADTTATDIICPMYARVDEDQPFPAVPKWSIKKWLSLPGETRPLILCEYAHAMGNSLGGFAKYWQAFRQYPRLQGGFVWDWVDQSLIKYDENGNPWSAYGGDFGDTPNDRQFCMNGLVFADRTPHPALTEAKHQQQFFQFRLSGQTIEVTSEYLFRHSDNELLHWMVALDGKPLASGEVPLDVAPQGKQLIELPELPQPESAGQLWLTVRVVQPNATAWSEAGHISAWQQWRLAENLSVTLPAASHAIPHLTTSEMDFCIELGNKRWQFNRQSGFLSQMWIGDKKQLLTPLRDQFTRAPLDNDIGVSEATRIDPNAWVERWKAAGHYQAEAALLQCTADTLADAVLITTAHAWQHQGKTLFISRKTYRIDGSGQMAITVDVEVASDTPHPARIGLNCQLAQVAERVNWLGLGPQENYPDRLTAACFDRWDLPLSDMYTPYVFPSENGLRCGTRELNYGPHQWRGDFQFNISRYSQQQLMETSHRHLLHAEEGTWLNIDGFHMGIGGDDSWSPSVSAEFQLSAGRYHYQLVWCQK

## OC[C@H]1OC(O)[C@H](O)[C@@H](O)[C@H]1O (stereo partly shown) [galactose]
  % activity with 2.5-20 mM galactose: we only observed very weak inhibition of catalytic activities of LacZ
